# Test results from PubChem BioAssay AID1996.
# Conditions: buffer; pH 7.4; 200.0 µM
row,SMILES,solubility kinetic [µg/mL]
1,Cc1cc(C)c2c(n1)sc1c(=O)n(Cc3ccc(F)cc3)cnc12,< 0.2
2,CCCCNC(=O)CCC(=O)N1CCN(C(c2ccccc2)c2ccccc2)CC1.Cl,> 66.6
3,COCc1cc(=O)[nH]c(/N=C(\N)Nc2ccc(Cl)c(Cl)c2)n1,0.2
4,Cc1cccc(-c2nc3sc(C)cc3c(=O)o2)c1,< 0.6
5,O=C(c1ccc(Cl)cc1)N1CCN(c2ncccn2)CC1,> 45.4
6,CC(C)C(NS(=O)(=O)c1cccc(C(F)(F)F)c1)C(=O)O (centres undefined),> 48.8
7,COc1cc2c(cc1OC)C(C)N(C(=O)c1c(-c3ccccc3)noc1C)CC2 (centres undefined),9
8,Cc1c(C(=O)NCC2CCCO2)oc2c(Cl)cccc12 (centres undefined),> 44.1
9,Cc1ccc(NC(=O)N2C3CCCC2CC(NC(=O)C2CC2)C3)cc1 (centres undefined),9.4
10,Cc1ccc(S(=O)(=O)NC(C)C(=O)NC(C)c2cccs2)cc1 (centres undefined),51.6
11,Cc1ccsc1C(=O)C1CCCN(Cc2ccc(O)cc2)C1 (centres undefined),36.8
12,CC(=O)c1ccccc1NC(=O)CSc1nc2ccccc2c(=O)n1CCCN1CCOCC1,1.8
13,O=C(COC(=O)c1cc(S(=O)(=O)Nc2ccccc2Cl)ccc1O)Nc1ccc(F)c(F)c1F,10
14,COc1ccc(NC(=O)CNC(=O)Cc2cccc3ccccc23)cc1,4.3
15,O=C(Nc1cccnc1)c1cc2cc(Br)ccc2o1,0.9
16,Cc1ccc(S(=O)(=O)N2CCC(C)CC2)cc1,28.6
17,COCCNc1nc2nonc2nc1N1C[C@H]2CC[C@H]1C2,> 43.5
18,Nc1ccc(C(=O)NCCCSc2ccccc2)cc1[N+](=O)[O-],1.6
19,COc1ccc(OC)c(N=C(N)N=C(N)N)c1,> 35.6
20,CC(=O)OCCCN(C)CC/C=C1/c2ccccc2CSc2ccccc21.Cl,53.8

row,SMILES,solubility kinetic [µg/mL]
1,O=C(COC(=O)c1ccc2c(c1)OCO2)Nc1ccccc1OC(F)F,3.7
2,Cc1ccccc1NC(=O)CC1SC(=Nc2ccc(O)cc2)NC1=O (centres undefined),2
3,CC(=O)C1=C(C)OC(N)=C(C#N)C1c1cccc2ccccc12 (centres undefined),37.6
4,N#C/C(C(N)=O)=C1/CCCN1Cc1ccccc1,> 36.2
5,O=C(Nc1cc2c(cc1[N+](=O)[O-])OCCO2)c1cccnc1,5.1
6,O=S(=O)(c1ccc2oc(=S)[nH]c2c1)N1CCOCC1,> 45.1
7,COc1ccccc1N1CCN(C(=S)Nc2ccccc2)CC1,39.3
8,Cc1nc2ccccc2n1C1CCN(C(=O)Nc2ccccc2)CC1,> 50.2
9,COc1ccccc1OCc1ccc(C(=O)NC(C)c2ccccc2)o1 (centres undefined),38.1
10,CC(C)c1ccc(NC(=S)NC2CC3C=CC2C3)cc1 (centres undefined),1.4
11,COC(=O)c1ccc(NC(=O)CCC(=O)c2ccc(F)cc2)cc1,< 0.7
12,CN(Cc1nc(-c2cccs2)no1)CC(O)c1ccccc1 (centres undefined),42.8
13,O=C(COc1ccc(F)cc1Br)NCCCN1CCCC1=O,> 56
14,CC(C)C(=O)NC(c1ccc(Cl)cc1Cl)c1ccc2cccnc2c1O (centres undefined),2.8
15,COc1cc(NC(=O)CN2CCCCCC2)cc(OC)c1,> 43.9
16,COc1cc(/C=C/C(=O)OCC(=O)NCCCc2ccccc2)ccc1O,52.9
17,O=C1c2oc3ccccc3c(=O)c2C(c2ccc(O)cc2)N1c1nccs1 (centres undefined),0.8
18,CN(CC(=O)Nc1cccc(F)c1)C(=O)c1sc2ccccc2c1Cl,23
19,COc1ccc(CNC(=O)COc2ccc(OC)cc2)cc1,35.8
20,CC(C)CC(=O)N1CCN(Cc2ccccc2Br)CC1,42

row,SMILES,solubility kinetic [µg/mL]
1,N=c1oc2ccc(Cl)cc2cc1C(=O)Nc1ccc(F)cc1,1
2,CC1Cc2ccccc2N1C(=O)c1ccc(F)c(S(=O)(=O)N2CCOCC2)c1 (centres undefined),50.3
3,CC(=O)Nc1scc(C)c1-c1nc2ccccc2s1,< 0.3
4,Cc1ccccc1CC(=O)Nc1ccon1,30.3
5,C=CCN(CC=C)CC(=O)Nc1cccc(Oc2cnccn2)c1,> 48.7
6,CCNC(=S)Nc1ccc(Cc2ccncc2)cc1,38.3
7,Cc1ccc(NC(=O)c2ccccc2NC(=O)c2cccnc2)cc1,< 0.2
8,Nc1cc(=O)[nH]c(SCCSc2ccc(F)cc2)n1,6.2
9,CC(OC(=O)CCCC(=O)Nc1ccccc1)C(=O)c1ccccc1 (centres undefined),45.6
10,NS(=O)(=O)c1ccc(NC(=O)COC(=O)CCCN2C(=O)c3cccc4cccc(c34)C2=O)cc1,8.8
11,COc1ccc(C(=O)NCCc2cnc[nH]2)cc1OC,> 41.3
12,CCc1nc2ccccc2n1CC(=O)NC1CCS(=O)(=O)C1 (centres undefined),> 48.2
13,Cc1c(C(=O)C(=O)N2c3ccccc3CC2C)c2ccccc2n1C (centres undefined),1.6
14,N/C(=N\OC(=O)CSc1ccccc1)c1ccncc1,37.6
15,O=c1[nH]c(=S)[nH]cc1S(=O)(=O)c1cccc(Cl)c1,> 45.4
16,O=C(COC(=O)C12CC3CC(CC(O)(C3)C1)C2)Nc1ccc(Cl)c(S(=O)(=O)N2CCOCC2)c1,> 77
17,O=C(C1CCCN(S(=O)(=O)c2ccccc2)C1)N1CCCCC1 (centres undefined),50.4
18,CCOC(=O)c1cc(-c2csc(Nc3c(C)cc(C)cc3C)n2)on1,0.4
19,CC(OC(=O)c1ccccc1)C(=O)NCCC1=CCCCC1 (centres undefined),> 45.2
